Results as given in patent publication US5629173A, “Methods of use of serine protease variants having peptide ligase activity” (priority 1995, dated 1997).
Residues, ends and D or L forms follow the SMILES beside them.

B1: wild type: wild type subtilisin from Bacillus amyloliquefaciens (subtilisin BPN') (protein, UniProt P00782 108-382, looked up)
Subtilisin BPN': AQSVPYGVSQIKAPALHSQGYTGSNVKVAVIDSGIDSSHPDLKVAGGASMVPSETNPFQDNNSHGTHVAGTVAALNNSIGVLGVAPSASLYAVKVLGADGSGQYSWIINGIEWAIANNMDVINMSLGGPSGSAALKAAVDKAVASGVVVVAAAGNEGTSGSSSTVGYPGKYPSVIAVGAVDSSNQRASFSSVGPELDVMAPGVSIQSTLPGNKYGAYNGTSMASPHVAGAAALILSKHPNWTNTQVRSSLENTTTKLGDSFYYGKGLINVQAAAQ

System: not listed separately
Assay: Esterase activity, hydrolysis of activated ester substrate
Format: biochemical
Settings: ratio of the apparent second order rate constants (kcat/KM)
Description: The esterase and amidase activities were obtained from initial rate measurements using a Kontron Uvikon 860 spectrophotometer. The assay for esterase activity utilized the substrate s-Ala-Ala-Pro-Phe-Sbz at (25±0.2° C.) in 100 mM Tris-HCl (pH 8.60), 4% (v/v) dimethylsulfoxide, 0.005% (v/v) Tween 80. With the non-cysteine containing proteases, DTNB (Ellman (1959), Arch. Biochem. Biophys., 82, 70-77) was added to a concentration of 37.5 μM to visualize the release of thiolbenzoate upon hydrolysis of the substrate. […] The amidase activities were measured under identical conditions by following the increase in absorbance at 412 nm upon hydrolysis of p-nitroanilide from s-Ala-Ala-Pro-Phe-pNA.

| esterase/amidase | Molecule |
| --- | --- |
| 4.8 | B1 |

Molecular target: T1, peptide ligase acylated by s-Ala-Ala-Pro-Phe (Bacillus amyloliquefaciens, UniProt P00782, P332A/S328C)
T1 construct: made in house
Assay: Aminolysis efficiency of di- and tri-amino acid peptide nucleophiles (Table IV)
Format: biochemical
Settings: not given
Description: Enzymatic ligation of peptides were performed at (25±0.2° C.) in 90 mM Tricine (pH 8.0), 2% (v/v) dimethylacetamide, 0.005% (v/v) Tween 80. The comparison between substrates having different leaving groups was simplified by measuring initial reaction rates at a low substrate concentrations (70-75 μM) and at a higher concentration (1.33 mM) where rates are proportional to kcat/KM and the kcat, respectively (Fersht (1977) in Enzyme Structure and Mechanism, W. H. Freeman & Co. USA). The higher substrate concentration may still be below the KM for some of the substrates, so that values for kcat are less accurate. The aminolysis with di- and tripeptides was performed at low peptide concentrations. The aminolysis rate V=kaminolysis [N][E-Ac]/KN, where [N] is the nucleophile concentration, [E-Ac] is the concentration of acyl-enzyme intermediate and KN is the dissociation constant for the binding of the nucleophile to the acyl-enzyme intermediate (Riechmann and Kasche (1985), Biochem. Biophys. Acta., 830, 164-172). Since KN=[N][E-Ac]/[N·E-Ac] a change in [N] will result in a change in [E-Ac] but at low [N], [E-Ac]>>[N·E-Ac] and kaminolysis /KN (the apparent second order rate constants for the reaction between the different nucleophile and the acyl-enzyme intermediate) may be compared. The concentrations of the peptide nucleophiles, and the calibration of the absorbance data for the different ligation products was obtained from amino acid composition analysis. The rates of peptide ligation were measured at four or five different concentrations for each nucleophile.
Ligation reactions were analyzed by taking aliquots at different times and analyzing the peptide products by C-18 reversed phase HPLC. Peptides were eluted in a gradient of acetonitrile/0.1% TFA in water/0.1% TFA and the absorbance at 214 nm monitored. Amino acid composition analysis was used to confirm both the hydrolysis and aminolysis products and to calibrate the absorbance values. The structures of the hydrolysis and aminolysis products (using the dipeptide Ala-Phe-amide as a nucleophile) were confirmed by mass spectrometrical analysis.

T1 sequence (P00782 108-382 S328C/P332A): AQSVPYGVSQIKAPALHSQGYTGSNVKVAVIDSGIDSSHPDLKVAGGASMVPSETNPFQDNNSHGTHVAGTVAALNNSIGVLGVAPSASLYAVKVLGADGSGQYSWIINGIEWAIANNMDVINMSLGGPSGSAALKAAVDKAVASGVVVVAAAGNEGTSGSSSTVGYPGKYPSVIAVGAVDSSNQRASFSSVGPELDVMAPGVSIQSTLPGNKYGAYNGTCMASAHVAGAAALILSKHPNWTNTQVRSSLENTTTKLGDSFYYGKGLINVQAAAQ

| Molecule | faster to aminolyze than Arg-Gly |
| --- | --- |
| N=C(N)NCCC[C@H](N)C(=O)N[C@@H](Cc1ccccc1)C(N)=O [RF, Arg-Phe-amide] | ~100 fold |

Same assay, conditions: compared with NH2-Gly-Phe-amide

| Molecule | quality as ligation substrate, in words |
| --- | --- |
| NC(=O)CNC(=O)[C@@H](N)Cc1ccccc1 [FG, Phe-Gly-amide] (H-Phe-Gly-NH2) | extremely poor ligation substrates |

Same assay, conditions: peptides amidated at the carboxy terminus; low peptide concentrations; pH 8.0, 25 C

| Molecule | apparent second order rate constants for the reaction of the nucleophile with the acylated peptide ligase, compared |
| --- | --- |
| C[C@H](N)C(=O)N[C@@H](Cc1ccccc1)C(=O)N[C@@H](C)C(N)=O [AFA, Ala-Phe-Ala-amide] (H-Ala-Phe-Ala-NH2) | 2.0 |
| CC(C)C[C@H](NC(=O)CN)C(N)=O [GL, Gly-Leu-amide] | 0.3 |
| C[C@H](NC(=O)CN)C(N)=O [GA, Gly-Ala-amide] (H-Gly-Ala-NH2) | 0.1 |
| NCC(=O)N[C@@H](Cc1ccccc1)C(N)=O [GF, Gly-Phe-amide] (H-Gly-Phe-NH2) | 0.8 |
| N=C(N)NCCC[C@H](N)C(=O)N[C@@H](Cc1ccccc1)C(N)=O [RF, Arg-Phe-amide] | 2.0 |
| CC(C)C[C@H](N)C(=O)N[C@@H](Cc1ccccc1)C(N)=O [LF, Leu-Phe-amide] (H-Leu-Phe-NH2) | 0.3 |
| N=C(N)NCCC[C@H](N)C(=O)NCC(N)=O [RG, Arg-Gly-amide] (H-Arg-Gly-NH2) | 0.04 |
| CC(C)C[C@H](N)C(=O)N[C@@H](Cc1ccccc1)C(=O)N[C@@H](CC(=O)O)C(N)=O [LFD, Leu-Phe-Asp-amide] (H-Leu-Phe-Asp-NH2) | 0.3 |
| NC(=O)CNC(=O)[C@@H](N)Cc1ccccc1 [FG, Phe-Gly-amide] (H-Phe-Gly-NH2) | 0.006 |
| C[C@H](N)C(=O)N[C@@H](Cc1ccccc1)C(N)=O [AF, Ala-Phe-amide] | 1.0 |
